# According to ChEMBL document CHEMBL1208746, “3-Cyano-5-fluoro-N-arylbenzamides as negative allosteric modulators of mGlu(5): Identification of easily prepared tool compounds with CNS exposure in rats” (Bioorg Med Chem Lett, 2010):
# Calls of active or inactive are those of the source. The rule behind the calls is not given here.
# Experiments:
# [1] = biological target: Metabotropic glutamate receptor 5 (Rattus norvegicus) (UniProt P31424); assay: Antagonist activity at rat mGlu5 receptor expressed in HEK293A cells assessed as inhibition of glutamate-induced calcium mobilization at 30 uM relative to glutamate; format: functional, cell-based; conditions: HEK293-A
# [2] = biological target: T1, Metabotropic glutamate receptor 5 (Rattus norvegicus, UniProt P31424); assay: Antagonist activity at rat mGlu5 receptor expressed in HEK293A cells assessed as inhibition of glutamate-induced calcium mobilization; format: functional, cell-based, HEK293-A
# T1 sequence (P31424 whole entry): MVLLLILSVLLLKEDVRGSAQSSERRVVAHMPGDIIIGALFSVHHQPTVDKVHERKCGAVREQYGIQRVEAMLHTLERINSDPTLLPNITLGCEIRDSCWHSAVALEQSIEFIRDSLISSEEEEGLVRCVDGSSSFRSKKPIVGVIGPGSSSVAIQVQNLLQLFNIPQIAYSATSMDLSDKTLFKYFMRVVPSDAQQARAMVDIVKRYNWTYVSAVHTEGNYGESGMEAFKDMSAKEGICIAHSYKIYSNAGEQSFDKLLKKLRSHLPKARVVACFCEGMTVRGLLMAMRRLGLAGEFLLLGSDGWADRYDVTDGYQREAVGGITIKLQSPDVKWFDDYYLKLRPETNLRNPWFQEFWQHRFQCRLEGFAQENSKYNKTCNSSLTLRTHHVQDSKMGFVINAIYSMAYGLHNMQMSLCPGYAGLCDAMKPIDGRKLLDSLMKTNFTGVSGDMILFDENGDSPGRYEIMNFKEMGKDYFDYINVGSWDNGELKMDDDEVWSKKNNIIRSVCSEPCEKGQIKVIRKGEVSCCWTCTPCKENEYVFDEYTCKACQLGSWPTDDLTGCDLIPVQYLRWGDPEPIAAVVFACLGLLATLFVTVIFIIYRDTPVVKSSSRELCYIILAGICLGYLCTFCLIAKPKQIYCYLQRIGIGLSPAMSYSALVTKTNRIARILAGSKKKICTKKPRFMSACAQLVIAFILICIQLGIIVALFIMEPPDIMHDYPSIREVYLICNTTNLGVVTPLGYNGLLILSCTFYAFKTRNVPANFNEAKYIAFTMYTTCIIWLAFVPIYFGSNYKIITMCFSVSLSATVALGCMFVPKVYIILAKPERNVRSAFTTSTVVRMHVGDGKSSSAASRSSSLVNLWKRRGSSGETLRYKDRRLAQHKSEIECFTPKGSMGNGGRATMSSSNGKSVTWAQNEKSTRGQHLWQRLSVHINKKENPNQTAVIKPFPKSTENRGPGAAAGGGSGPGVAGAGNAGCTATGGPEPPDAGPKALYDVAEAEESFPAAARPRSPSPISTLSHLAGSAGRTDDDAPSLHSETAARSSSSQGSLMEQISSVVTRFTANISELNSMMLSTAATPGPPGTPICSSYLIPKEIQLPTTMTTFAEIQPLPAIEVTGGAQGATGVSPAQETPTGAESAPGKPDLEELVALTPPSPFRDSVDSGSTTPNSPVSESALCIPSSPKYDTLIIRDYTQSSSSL
# [3] = biological target: Metabotropic glutamate receptor 4 (Homo sapiens) (UniProt Q14833); assay: Inhibition of mGlu4 receptor at 10 uM
# [4] = biological target: Metabotropic glutamate receptor 3 (Homo sapiens) (UniProt Q14832); assay: Inhibition of mGlu3 receptor at 10 uM
# Sequence of Metabotropic glutamate receptor 3 (Homo sapiens) (Q14832 23-879 limits assumed): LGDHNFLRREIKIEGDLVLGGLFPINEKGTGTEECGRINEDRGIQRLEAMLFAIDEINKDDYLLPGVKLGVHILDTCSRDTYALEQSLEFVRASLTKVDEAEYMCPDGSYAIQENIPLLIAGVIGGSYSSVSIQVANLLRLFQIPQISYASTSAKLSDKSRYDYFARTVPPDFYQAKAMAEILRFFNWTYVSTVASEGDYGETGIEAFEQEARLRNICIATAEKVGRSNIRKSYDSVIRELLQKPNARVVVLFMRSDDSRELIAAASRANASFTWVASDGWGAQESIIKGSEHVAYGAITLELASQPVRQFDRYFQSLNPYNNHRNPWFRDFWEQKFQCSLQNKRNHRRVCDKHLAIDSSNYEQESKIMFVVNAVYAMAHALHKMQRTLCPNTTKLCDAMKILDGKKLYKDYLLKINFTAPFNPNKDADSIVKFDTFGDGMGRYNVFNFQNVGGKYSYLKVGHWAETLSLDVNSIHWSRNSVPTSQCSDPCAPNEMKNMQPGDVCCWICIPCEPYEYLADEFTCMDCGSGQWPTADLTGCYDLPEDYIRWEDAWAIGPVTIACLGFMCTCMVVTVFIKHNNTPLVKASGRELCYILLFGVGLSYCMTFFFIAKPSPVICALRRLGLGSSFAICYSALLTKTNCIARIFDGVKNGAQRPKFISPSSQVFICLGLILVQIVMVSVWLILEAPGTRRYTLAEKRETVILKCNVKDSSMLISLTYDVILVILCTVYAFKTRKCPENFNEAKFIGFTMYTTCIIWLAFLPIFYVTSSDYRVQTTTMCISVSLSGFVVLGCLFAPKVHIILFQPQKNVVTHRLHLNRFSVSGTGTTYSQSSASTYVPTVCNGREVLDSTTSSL
# [5] = biological target: Metabotropic glutamate receptor 7 (Homo sapiens) (UniProt Q14831); assay: Inhibition of mGlu7 receptor at 10 uM
# Sequence of Metabotropic glutamate receptor 7 (Homo sapiens) (Q14831 whole entry): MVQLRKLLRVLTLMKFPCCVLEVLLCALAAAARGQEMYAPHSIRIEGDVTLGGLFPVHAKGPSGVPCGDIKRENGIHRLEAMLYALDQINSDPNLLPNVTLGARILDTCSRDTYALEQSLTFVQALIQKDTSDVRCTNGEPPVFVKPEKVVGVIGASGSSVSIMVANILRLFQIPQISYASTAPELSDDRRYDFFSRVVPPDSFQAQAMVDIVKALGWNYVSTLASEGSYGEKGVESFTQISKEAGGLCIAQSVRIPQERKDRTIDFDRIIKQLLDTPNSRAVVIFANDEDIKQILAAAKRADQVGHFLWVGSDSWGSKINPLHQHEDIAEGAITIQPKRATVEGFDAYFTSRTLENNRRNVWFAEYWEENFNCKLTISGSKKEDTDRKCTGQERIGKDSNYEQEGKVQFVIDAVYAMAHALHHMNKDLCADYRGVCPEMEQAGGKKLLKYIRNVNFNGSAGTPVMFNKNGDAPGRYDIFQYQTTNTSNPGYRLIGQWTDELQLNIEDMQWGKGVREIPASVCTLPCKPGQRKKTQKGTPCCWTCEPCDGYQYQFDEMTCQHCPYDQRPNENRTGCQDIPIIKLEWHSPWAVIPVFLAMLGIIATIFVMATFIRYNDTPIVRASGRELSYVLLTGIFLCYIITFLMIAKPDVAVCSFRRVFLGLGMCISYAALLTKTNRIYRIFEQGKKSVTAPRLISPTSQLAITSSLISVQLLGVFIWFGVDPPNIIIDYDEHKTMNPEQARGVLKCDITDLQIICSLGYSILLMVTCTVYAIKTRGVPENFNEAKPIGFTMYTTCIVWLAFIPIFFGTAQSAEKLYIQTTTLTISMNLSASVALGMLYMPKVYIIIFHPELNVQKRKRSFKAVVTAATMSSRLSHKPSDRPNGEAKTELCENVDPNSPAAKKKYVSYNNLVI
# [6] = biological target: Metabotropic glutamate receptor 2 (Homo sapiens) (UniProt Q14416); assay: Inhibition of mGlu2 receptor at 10 uM
# Plasma [7] = assay: Protein binding in human plasma by rapid equilibrium dialysis method; format: ADME, cell-free
# [8] = Metabolic stability in human liver microsomes assessed as compound remaining at 1 uM after 15 mins in presence of NADPH; format: ADME, Microsome; conditions: read-out: Stability
# [9] = Metabolic stability in rat liver microsomes assessed as compound remaining at 1 uM after 15 mins in presence of NADPH; format: ADME, Microsome; conditions: read-out: Stability
# [10] = biological target: Metabotropic glutamate receptor 1 (Homo sapiens) (UniProt Q13255); assay: Inhibition of mGlu1 receptor at 10 uM
# Sequence of Metabotropic glutamate receptor 1 (Homo sapiens) (Q13255 19-1194 limits assumed): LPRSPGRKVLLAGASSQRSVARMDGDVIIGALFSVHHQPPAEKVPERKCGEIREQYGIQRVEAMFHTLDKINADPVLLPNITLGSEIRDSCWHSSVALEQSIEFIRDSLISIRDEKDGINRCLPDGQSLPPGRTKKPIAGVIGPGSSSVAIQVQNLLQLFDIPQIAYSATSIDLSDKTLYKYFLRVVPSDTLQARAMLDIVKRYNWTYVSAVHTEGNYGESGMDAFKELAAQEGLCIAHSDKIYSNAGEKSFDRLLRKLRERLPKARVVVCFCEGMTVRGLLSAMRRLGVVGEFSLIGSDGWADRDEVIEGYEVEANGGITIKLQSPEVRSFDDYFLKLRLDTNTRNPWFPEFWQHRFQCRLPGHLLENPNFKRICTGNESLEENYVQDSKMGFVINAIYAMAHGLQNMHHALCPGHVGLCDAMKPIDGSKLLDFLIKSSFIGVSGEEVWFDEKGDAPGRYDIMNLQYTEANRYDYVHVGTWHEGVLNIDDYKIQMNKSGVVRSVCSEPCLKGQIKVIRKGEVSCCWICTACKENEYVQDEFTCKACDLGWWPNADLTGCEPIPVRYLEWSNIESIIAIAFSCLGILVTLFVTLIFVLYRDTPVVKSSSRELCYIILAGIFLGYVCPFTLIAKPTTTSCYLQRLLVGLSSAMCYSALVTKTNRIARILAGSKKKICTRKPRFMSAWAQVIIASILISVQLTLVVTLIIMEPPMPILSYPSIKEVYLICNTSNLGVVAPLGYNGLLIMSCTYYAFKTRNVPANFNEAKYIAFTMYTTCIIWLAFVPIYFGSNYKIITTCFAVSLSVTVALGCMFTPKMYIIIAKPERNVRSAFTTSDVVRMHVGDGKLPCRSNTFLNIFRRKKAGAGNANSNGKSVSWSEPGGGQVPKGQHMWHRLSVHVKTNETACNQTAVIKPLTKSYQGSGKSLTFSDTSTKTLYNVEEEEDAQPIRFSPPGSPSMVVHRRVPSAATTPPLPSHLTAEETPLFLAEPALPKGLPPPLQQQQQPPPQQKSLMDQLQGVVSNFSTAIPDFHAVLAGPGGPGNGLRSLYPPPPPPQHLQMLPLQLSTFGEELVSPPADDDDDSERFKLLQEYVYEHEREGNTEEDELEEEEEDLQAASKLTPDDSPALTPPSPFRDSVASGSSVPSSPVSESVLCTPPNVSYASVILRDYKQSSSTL
# [11] = biological target: T1, Metabotropic glutamate receptor 5; assay: Displacement of [3H]methoxy-PEPy from rat mGlu5 receptor expressed in HEK293A cells after 60 mins by scintillation counting; format: cell-based, HEK293-A
# Plasma [12] = assay: Protein binding in rat plasma by rapid equilibrium dialysis method; format: ADME, cell-free
# [13] = biological target: Metabotropic glutamate receptor 8 (Homo sapiens) (UniProt O00222); assay: Inhibition of mGlu8 receptor at 10 uM
# Sequence of Metabotropic glutamate receptor 8 (Homo sapiens) (O00222 whole entry): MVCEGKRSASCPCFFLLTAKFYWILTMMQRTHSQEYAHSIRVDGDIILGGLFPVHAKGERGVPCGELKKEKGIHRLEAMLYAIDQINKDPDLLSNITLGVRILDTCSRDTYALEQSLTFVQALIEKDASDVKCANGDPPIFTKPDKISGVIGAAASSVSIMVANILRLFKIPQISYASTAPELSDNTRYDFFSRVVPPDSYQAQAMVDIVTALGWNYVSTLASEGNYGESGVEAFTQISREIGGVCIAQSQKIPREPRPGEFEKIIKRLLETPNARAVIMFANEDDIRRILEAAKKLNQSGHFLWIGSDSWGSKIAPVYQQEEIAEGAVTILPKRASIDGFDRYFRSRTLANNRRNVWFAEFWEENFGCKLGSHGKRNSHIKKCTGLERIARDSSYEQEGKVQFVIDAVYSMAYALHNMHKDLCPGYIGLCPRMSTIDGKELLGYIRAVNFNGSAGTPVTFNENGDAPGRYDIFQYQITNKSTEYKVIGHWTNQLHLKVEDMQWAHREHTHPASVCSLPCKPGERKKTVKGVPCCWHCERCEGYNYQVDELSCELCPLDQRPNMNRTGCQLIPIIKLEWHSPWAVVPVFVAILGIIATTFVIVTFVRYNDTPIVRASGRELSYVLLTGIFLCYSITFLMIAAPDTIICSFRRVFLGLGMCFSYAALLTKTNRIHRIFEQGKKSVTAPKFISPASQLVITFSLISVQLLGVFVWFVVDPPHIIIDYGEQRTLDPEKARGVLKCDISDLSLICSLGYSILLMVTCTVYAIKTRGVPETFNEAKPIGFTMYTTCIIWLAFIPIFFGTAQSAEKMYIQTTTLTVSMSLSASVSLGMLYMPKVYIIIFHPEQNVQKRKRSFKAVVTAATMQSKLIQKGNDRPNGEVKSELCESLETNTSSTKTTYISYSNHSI
# Plasma [14] = assay: Cmax in Sprague-Dawley rat plasma at 10 mg/kg, ip after 0.25 to 4 hrs; format: ADME, organism-based; parameters: dose 10 mg/kg, route intraperitoneal; conditions: in vivo
# [15] = AUC (0-4 hrs) in Sprague-Dawley rat plasma at 10 mg/kg, ip; format: ADME, organism-based; parameters: time < 4 hr, dose 10 mg/kg, route intraperitoneal
# Plasma [16] = assay: Tmax in Sprague-Dawley rat plasma at 10 mg/kg, ip after 0.25 to 4 hrs; format: ADME, organism-based; parameters: dose 10 mg/kg, route intraperitoneal; conditions: in vivo
# [17] = Cmax in Sprague-Dawley rat brain at 10 mg/kg, ip after 0.25 to 4 hrs; format: ADME, organism-based; parameters: dose 10 mg/kg, route intraperitoneal
# Brain = assay: Tmax in Sprague-Dawley rat brain at 10 mg/kg, ip after 0.25 to 4 hrs; format: ADME, organism-based; parameters: dose 10 mg/kg, route intraperitoneal; conditions: in vivo
# [18] = Ratio of drug level brain to plasma in Sprague-Dawley rat at 10 mg/kg, ip; format: ADME, organism-based; parameters: dose 10 mg/kg, route intraperitoneal; conditions: brain and plasma
# [19] = AUC (0-4 hrs) in Sprague-Dawley rat brain at 10 mg/kg, ip; format: ADME, organism-based; parameters: time < 4 hr, dose 10 mg/kg, route intraperitoneal
%max [1],IC50 [2],SMILES,also measured
2.2%,0.25 µM,N#Cc1cc(F)cc(C(=O)Nc2cccc(Cl)n2)c1,–
–,> 30 µM,N#Cc1cc(F)cc(C(=O)Nc2ccon2)c1,–
0.9%,0.543 µM,N#Cc1cc(F)cc(C(=O)Nc2cccc(C(F)(F)F)c2)c1,–
37.4%,> 10 µM,N#Cc1cc(F)cc(C(=O)Nc2nccs2)c1,–
46.7%,> 10 µM,Cn1ccc(NC(=O)c2cc(F)cc(C#N)c2)n1,–
2.3%,0.331 µM,C#Cc1cccc(NC(=O)c2cc(F)cc(C#N)c2)c1,–
–,> 30 µM,N#Cc1cc(F)cc(C(=O)Nc2ccccc2F)c1,–
–,> 30 µM,N#Cc1cc(F)cc(C(=O)Nc2ccccc2Cl)c1,–
35.5%,> 10 µM,COc1cccc(NC(=O)c2cc(F)cc(C#N)c2)c1,–
2.4%,0.594 µM,Cc1nc(NC(=O)c2cc(F)cc(C#N)c2)sc1C,–
17.5%,0.863 µM,Cc1cnc(NC(=O)c2cc(F)cc(C#N)c2)s1,–
2.5%,0.347 µM,N#Cc1cc(F)cc(C(=O)Nc2cccc(Cl)c2F)c1,–
–,> 30 µM,N#Cc1cc(F)cc(C(=O)Nc2ccncc2)c1,–
1.4%,0.489 µM,N#Cc1cccc(NC(=O)c2cc(F)cc(C#N)c2)c1,–
–,> 30 µM,N#Cc1cc(F)cc(C(=O)NC2CCCCC2)c1,–
43%,0.377 µM,N#Cc1cc(F)cc(C(=O)Nc2ccc(F)c(Cl)c2)c1,–
38.5%,1.83 µM,N#Cc1cc(F)cc(C(=O)Nc2cc(F)cc(Cl)c2)c1,–
–,> 30 µM,Cc1cc(C)nc(NC(=O)c2cc(F)cc(C#N)c2)c1,–
–,> 30 µM,Cc1cccnc1NC(=O)c1cc(F)cc(C#N)c1,–
38.6%,> 10 µM,Cc1ccnc(NC(=O)c2cc(F)cc(C#N)c2)c1,–
–,> 30 µM,COc1ccccc1NC(=O)c1cc(F)cc(C#N)c1,–
29.7%,> 10 µM,CC(C)(C)c1csc(NC(=O)c2cc(F)cc(C#N)c2)n1,–

%max [1],IC50 [2],SMILES,also measured
19.6%,> 10 µM,N#Cc1cc(F)cc(C(=O)Nc2cccc(C(F)(F)F)n2)c1,–
69.2%,> 10 µM,N#Cc1cc(F)cc(C(=O)Nc2ccc(F)cc2)c1,–
22.1%,2.16 µM,N#Cc1cc(F)cc(C(=O)Nc2cccc(F)c2)c1,–
17.3%,1.51 µM,COc1cccc(NC(=O)c2cc(F)cc(C#N)c2)n1,–
34.7%,> 10 µM,N#Cc1cc(F)cc(C(=O)NC2C3CC4CC(C3)CC2C4)c1 (stereo unspecified),–
–,> 30 µM,Cc1ccc(NC(=O)c2cc(F)cc(C#N)c2)cc1,–
2.1%,0.122 µM,Cc1cccc(NC(=O)c2cc(F)cc(C#N)c2)c1,"inhibition [3]: inactive; inhibition [4]: inactive; inhibition [5]: inactive; inhibition [6]: inactive; PPB (Plasma [7]): 98.3%; remaining at 0.25 h, 1 µM [8]: 19.5%; remaining at 0.25 h, 1 µM [9]: 69.7%; inhibition [10]: inactive; Ki [11]: 0.1 µM; PPB (Plasma [12]): 95.3%; inhibition [13]: inactive"
12.5%,5.44 µM,N#Cc1cc(F)cc(C(=O)Nc2ccccc2)c1,–
1.2%,0.065 µM,Cc1cccc(NC(=O)c2cc(F)cc(C#N)c2)n1,"inhibition [3]: inactive; inhibition [4]: inactive; inhibition [5]: inactive; inhibition [6]: inactive; PPB (Plasma [7]): 89.9%; remaining at 0.25 h, 1 µM [8]: 7%; remaining at 0.25 h, 1 µM [9]: 46.5%; inhibition [10]: inactive; Ki [11]: 0.157 µM; PPB (Plasma [12]): 84%; inhibition [13]: inactive"
–,> 30 µM,CC(C)(C)c1cccc(NC(=O)c2cc(F)cc(C#N)c2)c1,–
0.6%,0.045 µM,N#Cc1cc(F)cc(C(=O)Nc2cccc(Cl)c2)c1,"inhibition [3]: inactive; inhibition [4]: inactive; Cmax (Plasma [14]): 970 ng/mL; inhibition [5]: inactive; inhibition [6]: inactive; PPB (Plasma [7]): 97.1%; remaining at 0.25 h, 1 µM [8]: 18%; AUC(0-t) at 4 h [15]: 1200 ng·h/mL; Tmax (Plasma [16]): 15 min; remaining at 0.25 h, 1 µM [9]: 96.8%; Cmax [17]: 1090 ng/mL; inhibition [10]: inactive; Ki [11]: 0.206 µM; Tmax (Brain): 15 min; PPB (Plasma [12]): 93.7%; Kp [18]: 1.4; inhibition [13]: inactive; AUC(0-t) at 4 h [19]: 1710 ng·h/mL"
5.4%,3.01 µM,N#Cc1cc(F)cc(C(=O)Nc2ccccn2)c1,–
–,> 30 µM,N#Cc1cc(F)cc(C(=O)Nc2cccnc2)c1,–
–,> 30 µM,COc1ccc(NC(=O)c2cc(F)cc(C#N)c2)cc1,–
–,> 30 µM,Cc1ccccc1NC(=O)c1cc(F)cc(C#N)c1,–
–,> 30 µM,N#Cc1cc(F)cc(C(=O)Nc2ccc(Cl)cc2)c1,–
–,> 30 µM,CS(=O)(=O)c1cccc(NC(=O)c2cc(F)cc(C#N)c2)c1,–
2.4%,4.94 µM,CCc1cccc(NC(=O)c2cc(F)cc(C#N)c2)c1,–
1.7%,0.505 µM,CCc1cccc(NC(=O)c2cc(F)cc(C#N)c2)n1,–
29.8%,3.78 µM,N#Cc1cc(F)cc(C(=O)Nc2cc(Cl)ccc2F)c1,–
1.5%,0.9 µM,N#Cc1cc(F)cc(C(=O)Nc2nc(C3CC3)cs2)c1,–
1%,0.059 µM,Cc1csc(NC(=O)c2cc(F)cc(C#N)c2)n1,"inhibition [3]: inactive; inhibition [4]: inactive; Cmax (Plasma [14]): 7650 ng/mL; inhibition [5]: inactive; inhibition [6]: inactive; PPB (Plasma [7]): 98.4%; remaining at 0.25 h, 1 µM [8]: 70.3%; AUC(0-t) at 4 h [15]: 17800 ng·h/mL; Tmax (Plasma [16]): 15 min; remaining at 0.25 h, 1 µM [9]: 89.9%; Cmax [17]: 28800 ng/mL; inhibition [10]: inactive; Ki [11]: 0.102 µM; Tmax (Brain): 15 min; PPB (Plasma [12]): 92.4%; Kp [18]: 4.1; inhibition [13]: inactive; AUC(0-t) at 4 h [19]: 73000 ng·h/mL"
